According to patent publication US20090060928A1, “Topical Toll Like Receptor Ligands as Vaccine Adjuvants” (priority 2006, published 2009):

Legend:
[1] = test system: OVA positive tumor cells; experiment: Vaccine-induced tumor protective immunity against lethal challenge; type: in vivo, mice; details: 5% cream topically over site of sc OVA immunization
Source text: Importantly, the potency of imiquimod was as great as that of the strongest adjuvant we have studied to date in mice but with less local toxicity.

[2] = test system: E.G7-OVA cells; experiment: ELISPOT (gamma-interferon release) of spleen cells for T-cell response to OVA positive target cells; type: in vivo, C57BI/6 mice; details: for cellular response to OVA by ELISPOT: FIG. 3B; for T-cell (cellular) response by ELISPOT: FIG. 2A
Source text: FIG. 1A: Mice were immunized to OVA with or without topical application of imiquimod treatment 1× or 3×/wk following each immunization. Spleen cells were collected from each group 1 week following 4 immunizations, and tested by ELISPOT (based on gamma-interferon release) for T-cell response to OVA positive target cells (E.G7-OVA). FIG. 2B Mice were immunized to OVA with topical application of imiquimod 3×/week or with OVA encapsulated into IL-2 liposomes. Imiquimod boosted T-cell responses more strongly than IL-2 liposomes.
(§1) FIG. 3A: Groups of mice were immunized to OVA alone or followed by topical application of imiquimod to the site of immunization 1×/wk. or to a site distal to the immunization. One week following 4 weekly immunizations, sera was collected and tested for anti-OVA IgG subclass antibodies by ELISA. Anti-OVA IgG responses was greater in mice treated with imiquimod both locally and distally than in those immunized to OVA alone. FIG. 3B: Triplicate mice were sacrificed 1 week after 4 immunizations and cellular immune responses to OVA-expressing target E.G7-OVA cells determined by ELIspot assay
(§2) In more detail, groups of 10 C57BI/6 mice were immunized sc weekly×4 to 0.1 mg of ovalbumin (OVA). Some groups were in addition treated with 5% imiquimod cream applied topically to the immunization site once or 3×/week. Control groups were immunized to PBS, to OVA encapsulated into IL-2 liposomes (which we have previously shown is one of the strongest adjvuanrts available), or to irradiated E.G7-OVA cells (a powerful stimulator of anti-OVA T-cell responses). Serum was collected from each mouse at baseline and following the 4th immunization, pooled by immunization group, and assayed for antibodies to OVA by ELISA.
Imiquimod boosted in particular Ig2a and IgG2b responses which were almost undetectable in mice immunized to OVA alone (see FIG. 1 B). This is consistent with the known capacity of this agent to preferentially boost Th1 responses. […] No T-cell responses were detectable in mice immunized similarly to OVA alone.
By contrast, no significant T-cell responses above PBS controls were detectable in mice immunized similarly to OVA alone. We have not studied the adjuvant activity of other TLR receptor ligands such as resiquimod and CpG ODN applied topically away from the immunization site. […] Thus, it is reasonable to expect that all of these will also retain adjuvant activity when applied topically directly over, or away, from the immunization site. Because their specific mechanism of action differs from that of imiquimod, they may have stronger adjuvant activity or may be better able to enhance specific type of immune responses than imiquimod. Combinations of TLR ligands may be able to enhance stronger or broader type of immune response than any one individual TLR ligand alone. This invention is intended to cover these different possibilities.

[3] = test system: anti-OVA IgG antibodies; experiment: Anti-OVA antibodies in serum by ELISA after sc OVA immunization with adjuvant; type: in vivo, C57BI/6 mice
Source text: Fig. A: Groups of mice were immunized to OVA alone or followed by topical application of imiquimod to the site of immunization 3×/wk. or to OVA in ILK-2 liposomes. One week following 4 weekly immunizations, sera was collected and tested for anti-OVA IgG antibodies by ELISA. Anti-OVA IgG responses was greater in mice treated with imiquimod than in those immunized to OVA alone. It was as strong as that induced by IL-2 liposomes as the adjuvant. Fig. B: One week following 4 weekly immunizations, IgG1, IgG2a, IgG2b, and IgG3 anti-OVA antibodies was measured in these groups by ELISA, using subclass specific antibodies as probes.
as §1, §2
In these experiments, groups of […] mice were immunized sc weekly×4 to 0.1 mg of ovalbumin (OVA) given in 0.1 ml of PBS injected in the lower abdominal region. One group of mice was also treated with 5% imiquimod applied topically to the skin at a site distal (in the nape of the neck) to the immunization site 1×/week.

[4] = Local toxicity of the adjuvant; type: in vivo; details: adjuvant with sc OVA immunization
[5] = topical imiquimod at immunization site, vs OVA only, FIG. 1B

In the case of `CC(C)Cn1cnc2c(N)nc3ccccc3c21` [imiquimod], the “vaccine-induced tumor protective immunity” value [1] is reported as “markedly increased”, the “cellular response to OVA by ELISPOT” value ([2]; distal application of imiquimod) is reported as “strong cellular responses” and the “T-cell (cellular) response by ELISPOT” value ([2]; imiquimod applied to immunization site 1x/wk following each immunization) is reported as “slight response”. The “T-cell (cellular) response by ELISPOT” value ([2]; imiquimod applied to immunization site 3x/week) was “very strong response”, the “cellular response to OVA by ELISPOT” value ([2]; local application of imiquimod) was “strong cellular responses” and the “T-cell response compared with IL-2 liposomes” value ([2]; topical imiquimod 3x/week vs OVA in IL-2 liposomes, FIG. 2B) was “more potent stimulator of T-cell responses than IL-2 liposomes”. For the same compound, the “overall IgG anti-OVA antibody response” value ([3]; OVA 0.1 mg sc weekly x4 + topical imiquimod at immunization site 3x/wk, vs OVA alone, FIG. 1A) was “considerably greater”, the “IgG2a titer, times stronger than OVA alone” value ([3]; distal imiquimod treatment) was 25 times and the “IgG2b titer, stronger than OVA alone” value ([3]; distal imiquimod treatment) was 125. For the same compound, the “IgG2a titer, times stronger than OVA alone” value ([3]; local imiquimod treatment) was 125 times, the “IgG2b titer, stronger than OVA alone” value ([3]; local imiquimod treatment) was 125 and the “IgG1 anti-OVA antibody response” value [3, 5] was “reduced”. The “IgG2a anti-OVA antibody response” value [3, 5] was “markedly boosted”, the “IgG2b anti-OVA antibody response” value [3, 5] was “markedly boosted” and the “anti-OVA IgG subclass response” value ([3]; topical imiquimod both local and distal to vaccine injection site, vs OVA alone, FIG. 3A) was “considerably greater”. The local toxicity [4] was “no toxicity at all”.
